The text below walks through data of patent US20230264009A1, “DISINFECTING CAP KIT FOR LUER ACCESS DEVICES” (SterileCare Inc., priority 2022, published 2023).

Molecules are shown by their SMILES.

Assay [1] deals with S. epidermidis SK9. Briefly: MIC, micro broth dilution. Type of assay: cell-based, Staphylococcus epidermidis. The conditions noted are these: alone, 24 h. On the procedure:
(§1) An assay was made using a minimum inhibitory concentration (MIC) and minimum bactericidal concentration (MBC) and minimum fungicidal concentration (MFC) determination. The MIC was determined by the micro broth dilution method in 96-well plates. Serial two-fold dilutions of tetrasodium EDTA (from 2% to 0.015%), ethanol (from 50% to 0.1%) and chlorhexidine HCl (from 100 µg/mL to 0.025 µg/mL) were prepared in MH broth with a final volume of 90 µL per well. A 10 µL containing 1 × 10^5 bacterial cells or 2 × 10^3 fungal cells were added to each well. The inoculated plates were covered with a lid, sealed with Parafilm, and incubated for 24 h at 37° C. with slight rocking on a tilting platform shaker. After incubation, the optical density at 600 nm (OD 600 ) of the cultures in each well was measured using an xMark™ Microplate Absorbance Spectrophotometer (Bio-Rad). […] MBCs and MFCs were determined by transferring 100 µL from each well with no apparent growth onto appropriate agar plates, followed by incubation for 24 h at 37° C.
On the technique in general: In broth dilution the organism is exposed to a series of concentrations in liquid medium.

The test system of assay [2] is Pseudomonas aeruginosa SK1 biofilm. Nature of the assay: FBEC index, checkerboard dilution on biofilms. Type of assay: cell-based. The conditions noted are these: P. aeruginosa SK1 biofilm.
Protocol: (§4) In step (4), microtiter plates are incubated at 37° C. for 24 h. then (6), after incubation, the bacterial and fungal cells were dislodged from the pegs into the recovery medium described above.
(§5) Three 10-µL aliquots, for a total of 30 µL from each well of recovery medium, were spotted on MH agar plates and incubated for 24 h at 37° C. […] The FBEC determination is a modification of the FICI.
The next assay relates to C. albicans ON47. Briefly: MBC/MFC determination. Conditions: alone. Type of assay: cell-based, Candida albicans. On the procedure: as §1
The test system of assay [3] is C. albicans ON47 biofilm. Nature of the assay: FBEC index, checkerboard dilution on biofilms. Type of assay: cell-based, Candida albicans.
Protocol: as §4, §5
The test system of assay [4] is S. epidermidis SK9. Nature of the assay: Checkerboard titration, FICI. Type of assay: cell-based, Staphylococcus epidermidis. The protocol:
(§2) A fourth composition and solution included tetrasodium EDTA with ethanol or chlorhexidine HCl. This fourth composition and solution were created using checkerboard titration methods using micro broth dilution in 96-well microtiter plates. The concentrations of antimicrobials used were based on previously determined MIC values. Briefly, 200 µL of two-fold dilutions of tetrasodium EDTA and ethanol or chlorhexidine HCl were prepared in MH or MH II broth with standardized cell suspension. […] Microtiter plates were incubated at 37° C. for 24 h, and the results were analyzed. Each test was performed in duplicate and included a growth control without adding any antimicrobials.

The test system of assay [5] is C. albicans ON47 biofilm. Briefly: MBEC Assay, 48-h biofilm, 24 h exposure. Type of assay: cell-based, Candida albicans. The protocol: (§3) A biofilm cultivation cell composition was provided. This fifth composition was created using an MBEC Assay® biofilm inoculator, consisting of a polystyrene lid with 96 downward-protruding pegs and a corresponding base used to grow biofilms. A standardized inoculum was diluted in an appropriate biofilm growth medium to achieve a viable cell count of 1.5 × 10^6 CFU/mL of bacterial cells or […] CFU/mL of fungal cells. Then, 150 µL of this inoculum was transferred into each appropriate well, and the peg lids were inserted into the microtiter plates. The plates were sealed with Parafilm and were incubated at optimum temperature for 48 h with slight rocking for bacteria and shaking at 200 rpm for fungal strains. After incubation, the peg lid was removed from the base and rinsed twice with sterile phosphate-buffered saline (PBS) for 2 min to remove loosely attached non-sessile cells. Before the antimicrobial challenge, the pegs in column 1 (n = 8) were considered the biofilm growth control; these pegs were removed from the lids, placed into 200 µL of recovery medium, and analyzed for starting biofilm cell numbers as described below. […] MBEC values were determined as the minimum concentration of antimicrobials that yielded a viable cell count at or lower than the 125 CFU/mL detection limit.

Assay [6] has as its system 48-h-old biofilms of bacterial and fungal strains. Briefly: MBEC Assay, 24 h exposure (summary). Type of assay: cell-based. The conditions noted are these: following 24 h of treatment. The protocol:
A biofilm cultivation cell composition was provided. This fifth composition was created using an MBEC Assay® biofilm inoculator, consisting of a polystyrene lid with 96 downward-protruding pegs and a corresponding base used to grow biofilms. A standardized inoculum was diluted in an appropriate biofilm growth medium to achieve a viable cell count of 1.5 × 10^6 CFU/mL of bacterial cells or […] CFU/mL of fungal cells. Then, 150 µL of this inoculum was transferred into each appropriate well, and the peg lids were inserted into the microtiter plates. The plates were sealed with Parafilm and were incubated at optimum temperature for 48 h with slight rocking for bacteria and shaking at 200 rpm for fungal strains. After incubation, the peg lid was removed from the base and rinsed twice with sterile phosphate-buffered saline (PBS) for 2 min to remove loosely attached non-sessile cells. Before the antimicrobial challenge, the pegs in column 1 (n = 8) were considered the biofilm growth control; these pegs were removed from the lids, placed into 200 µL of recovery medium, and analyzed for starting biofilm cell numbers as described below. […] After the antimicrobial challenge, the pegs were rinsed twice with sterile PBS for 2 min and placed into a new 96-well plate containing 200 µL of recovery medium. The recovery plates were sealed with Parafilm, and biofilm cells were dislodged from the pegs by sonication for 30 min with a Branson 3510 bath sonicator. The biofilm cells in the recovery medium were serially diluted, and a drop dilution assay was performed to enumerate the viable cells. MBEC values were determined as the minimum concentration of antimicrobials that yielded a viable cell count at or lower than the 125 CFU/mL detection limit.

In assay [7] the test system is Candida albicans SK4b biofilm. Briefly: FBEC index, checkerboard dilution on biofilms. Type of assay: cell-based. The conditions noted are these: C. albicans SK4b biofilm.
Protocol: as §4, §5
The test system of the next assay is E. coli SK2. Briefly: MBC/MFC determination. Type of assay: cell-based, Escherichia coli. The conditions noted are these: alone. On the procedure:
as §1

Assay [8] deals with Staphylococcus aureus ON89. Briefly: Checkerboard titration, FMCI. Type of assay: cell-based. The conditions noted are these: S. aureus ON89. The protocol: as §1, §2
The test system of assay [9] is Staphylococcus epidermidis ON170. Briefly: Checkerboard titration, FMCI. Type of assay: cell-based. The conditions noted are these: S. epidermidis ON170. On the procedure:
as §1, §2

The next assay deals with Candida albicans SK4b. Briefly: Checkerboard titration, FMCI. Type of assay: cell-based. Conditions: C. albicans SK4b. On the procedure: as §1, §2
In the next assay the test system is MRSA ON184 biofilm. Nature of the assay: MBEC Assay, 48-h biofilm, 24 h exposure. Type of assay: cell-based, Staphylococcus aureus. The protocol: as §3
[10] abbreviates: tetrasodium EDTA + chlorhexidine HCl.

The molecule `O=C([O-])CN(CCN(CC(=O)[O-])CC(=O)[O-])CC(=O)[O-].[Na+].[Na+].[Na+].[Na+]` [EDTA, tetrasodium EDTA] returned an MIC in the assay with S. epidermidis SK9 [1] of 0.063 % w/v. For the same molecule, the “FBEC (concentration in combination)” value came out at 0.25 % w/v in assay [2] (setting [10]); 0.125 % w/v in assay [2] (tetrasodium EDTA + ethanol); 0.031 % w/v with C. albicans ON47 biofilm [3] (setting [10]); 0.125 % w/v with C. albicans ON47 biofilm [3] (tetrasodium EDTA + ethanol); 0.063 % w/v in assay [7] (setting [10]); 0.125 % w/v in assay [7] (tetrasodium EDTA + ethanol). Besides, the MBC/MFC was determined as 1 % w/v in the assay on C. albicans ON47 and 0.5 % w/v in the assay with E. coli SK2. The “Concentration in combination giving FICI” value in the assay with S. epidermidis SK9 [4] (setting [10]) and in the assay on S. epidermidis SK9 [4] (tetrasodium EDTA + ethanol) was 0.015 % w/v each time. In addition, the MBEC is given as 1 % w/v in the assay with C. albicans ON47 biofilm [5] and 2 % w/v with MRSA ON184 biofilm. Also, the “Concentration alone able to eradicate all established biofilms” value in assay [6] was found to be 4%. The “Concentration in combination giving FMCI” value is 0.008 % w/v in assay [8] (setting [10]); 0.25 % w/v in assay [8] (tetrasodium EDTA + ethanol); 0.25 % w/v in [9] (setting [10]); 0.031 % w/v in assay [9] (tetrasodium EDTA + ethanol); 0.125 % w/v in the assay with Candida albicans SK4b (setting [10]); 0.25 % w/v in the assay on Candida albicans SK4b (tetrasodium EDTA + ethanol).
